Data as given in US11203577B2, “Sulfonyl-structure-containing triazinone derivatives, their preparation methods and their uses in insect killing and/or bacterium killing” (Nankai University, priority 2017, dated 2021).

What was measured:
Cucumber fusarium wilt = assay: In vitro fungicidal activity, PDA colony diameter; type: cell-based; conditions: 96 h, 50 mg/kg, inhibition of colony diameter, read-out: Fungicidal activity (%) Cucumber fusarium wilt
Watermelon anthracnose = assay: In vitro fungicidal activity, PDA colony diameter; type: cell-based; conditions: 50 mg/kg, inhibition of colony diameter; read-out: Fungicidal activity (%) Watermelon anthracnose
[1] = system: a variety of pathogenic fungi; assay: In vitro fungicidal activity, summary over the tested fungi; type: cell-based; conditions: 50 mg/kg
Experimental: Here, the test is described in an example of Alternaria solani; it can be replaced by other fungi.
In vitro testing method: Alternaria solani is inoculated to a PDA culture medium and cultured for 7 days, a fungus dish with a diameter of […] is prepared on the periphery of the colony with a punch and inoculated to a PDA culture medium that contains pesticide at a concentration of 50 mg/kg and a PDA culture medium that doesn't contain the pesticide, and are cultured for 4 days respectively; then, the colony diameters are measured, and the inhibition percentages of the pesticides are calculated by comparing with the control sample.

Tomato early blight = assay: In vitro fungicidal activity, PDA colony diameter; type: cell-based, Alternaria solani; conditions: 50 mg/kg, inhibition of colony diameter; read-out: Fungicidal activity (%) Tomato early blight
[2] = system: Cercospora brown spot of peanut; assay: In vitro fungicidal activity, PDA colony diameter; type: cell-based; conditions: 96 h, 50 mg/kg, inhibition of colony diameter, read-out: Fungicidal activity (%) Cercospora brown spot of peanut
[3] = system: bean aphides (Aphis laburni Kaltenbach); assay: Test of insecticidal activity against aphides (leaf immersion, checked after 96 h); conditions: for mortality at 10 mg/kg / mortality at 100 mg/kg / mortality at 600 mg/kg / mortality at 2.5 mg/kg / mortality at 5 mg/kg: Aphis, 96 h, read-out: Mortalities (%) against aphides; for insecticidal activity against aphides compared with pymetrozine: 5 mg/kg
[4] = system: mosquito larvae (Culer pipiens pallens); assay: Test of insecticidal activity against mosquito larvae (checked after 24 h)
Sclerotinia rot of colza = assay: In vitro fungicidal activity, PDA colony diameter; type: cell-based; conditions: 96 h, 50 mg/kg, inhibition of colony diameter, read-out: Fungicidal activity (%) Sclerotinia rot of colza
Apple ring rot = assay: In vitro fungicidal activity, PDA colony diameter; type: cell-based; conditions: inhibition of colony diameter
Summary of the method: (§1)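 Mycelial plugs cut from the edge of 7-day PDA colonies placed on PDA containing 50 mg/kg compound or on compound-free PDA, grown 4 days. Colony diameters measured; percent inhibition calculated against untreated control.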

[5] = system: Capsicum phytophthora blight; assay: In vitro fungicidal activity, PDA colony diameter; type: cell-based; conditions: 96 h
Summary of the method: as §1

Wheat head blight = assay: whole plant or invertebrate; type: cell-based; conditions: Triticum aestivum, read-out: Fungicidal activity (%) Wheat head blight
Armyworms = assay: Test of insecticidal activity against armyworms (leaf immersion); conditions: 600 mg/kg, 3-4 days
Maize borers = assay: Test of insecticidal activity against maize borers (leaf immersion); conditions: read-out: Mortalities (%) Maize borers
[6] = system: Corn southern leaf blight; assay: In vitro fungicidal activity, PDA colony diameter; type: cell-based; conditions: 50 mg/kg, inhibition of colony diameter; read-out: Fungicidal activity (%) Corn southern leaf blight
Cotton bollworms = assay: Test of insecticidal activity against cotton bollworms (pesticide mixed into feedstuff); conditions: read-out: Mortalities (%) Cotton bollworms
Experimental: Method of testing against cotton bollworms: the pesticide is mixed into the feedstuff, i.e., 3 mL prepared solution is added into about 27 g freshly prepared feedstuff; thus, required concentration is obtained by diluting by 10 times.

Wheat sheath blight = assay: In vitro fungicidal activity, PDA colony diameter; type: cell-based; conditions: 50 mg/kg, inhibition of colony diameter; read-out: Fungicidal activity (%) Wheat sheath blight
Potato late blight = assay: microbe, parasite or virus in culture; type: cell-based; conditions: Phytophthora infestans, 96 h, read-out: Fungicidal activity (%) Potato late blight
Rice sheath blight = assay: In vitro fungicidal activity, PDA colony diameter; type: cell-based; conditions: 50 mg/kg, inhibition of colony diameter; read-out: Fungicidal activity (%) Rice sheath blight
Rice bakanae disease = assay: In vitro fungicidal activity, PDA colony diameter; type: cell-based; conditions: 50 mg/kg, inhibition of colony diameter; read-out: Fungicidal activity (%) Rice bakanae disease
[7] = 24 h, read-out: Mortalities (%) against mosquito larvae

SMILES	inhibition of growth at 50 mg/kg (Cucumber fusarium wilt) [%]	inhibition at 50 mg/kg (Watermelon anthracnose) [%]	inhibition at 50 mg/kg (Tomato early blight) [%]	inhibition of growth at 50 mg/kg [2] [%]	mortality at 10 mg/kg [3] [%]	mortality at 100 mg/kg [3] [%]	mortality at 600 mg/kg [3] [%]	mortality at 10 mg/kg [4, 7] [%]	inhibition of growth at 50 mg/kg (Sclerotinia rot of colza) [%]	inhibition at 50 mg/kg (Apple ring rot) [%]	inhibition of growth at 50 mg/kg [5] [%]	inhibition at 50 mg/kg (Wheat head blight) [%]	Mortalities (%) Armyworms (Armyworms) [%]	mortality at 600 mg/kg (Maize borers) [%]	inhibition at 50 mg/kg [6] [%]	mortality at 600 mg/kg (Cotton bollworms) [%]	inhibition at 50 mg/kg (Wheat sheath blight) [%]	inhibition of growth at 50 mg/kg (Potato late blight) [%]	inhibition at 50 mg/kg (Rice sheath blight) [%]	inhibition at 50 mg/kg (Rice bakanae disease) [%]	also measured
CCCCS(=O)(=O)NN1CC(C)=NNC1=O [Ia-4, N-(6-methyl-3-oxo-2,3-dihydro-1,2,4-triazin-4(5H)-yl)-n-butylsulfonamide]	0	25	14.3	15.8	20	70	85	20	48.3	31	46.9	6.7	5	5	33.3	0	70.5	40.7	34.9	38.9	fungicidal activity against a variety of pathogenic fungi [1]: outstanding fungicidal activity
CC1=NNC(=O)N(NS(=O)(=O)c2ccc(C)cc2)C1 [Ia-12, 4-methyl-N-(6-methyl-3-oxo-2,3-dihydro-1,2,4-triazin-4(5H)-yl)-benzenesulfonamide]	25	33.3	33.3	42.1	100	100	100	100	70	41.4	40.8	13.3	15	10	33.3	30	72.7	29.6	27	27.8	fungicidal activity against a variety of pathogenic fungi [1]: outstanding fungicidal activity; mortality at 2.5 mg/kg [3]: 30%; mortality at 5 mg/kg [3]: 100%; mortality at 2 mg/kg [4, 7]: 10%; mortality at 5 mg/kg [4, 7]: 100%
CC1=NNC(=O)N(NS(=O)(=O)c2cn(C)cn2)C1 [Ia-31, 1-methyl-N-(6-methyl-3-oxo-2,3-dihydro-1,2,4-triazin-4(5H)-yl)-1H-imidazolyl-4-sulfonamide]	14.7	28.1	16.1	13	35	100	100	60	31.6	29.4	18.8	17.2	10	15	2.6	5	47.1	18.8	5.8	12.5	
CC1=NNC(=O)N(NS(=O)(=O)c2ccccc2F)C1 [Ia-16, 2-fluoro-N-(6-methyl-3-oxo-2,3-dihydro-1,2,4-triazin-4(5H)-yl)-benzenesulfonamide]	2.9	8.2	13.4	8	90	100	100	100	15.8	17.6	13.9	10.8	10	15	0	10	14.3	3.1	11.6	27.6	insecticidal activity against aphides compared with pymetrozine [3]: equivalent to the insecticidal activity of pymetrozine; mortality at 5 mg/kg [3]: 30%; mortality at 2 mg/kg [4, 7]: 30%; mortality at 5 mg/kg [4, 7]: 100%
CC(=O)Nc1ccc(S(=O)(=O)NN2CC(C)=NNC2=O)cc1 [Ia-24, N-(4-(N-(6-methyl-3-oxo-2,3-dihydro-1,2,4-triazin-4(5H)-yl)sulfamyl)phenyl)acetamide]	0	12.5	23.8	15.8	75	95	100	100	40	13.8	24.5	6.7	5	5	25	50	52.3	22.2	50.8	27.8	mortality at 5 mg/kg [3]: 10%; mortality at 5 mg/kg [4, 7]: 45%
CC1=NNC(=O)N(NS(=O)(=O)c2ccc(I)cc2)C1 [Ia-23, 4-iodo-N-(6-methyl-3-oxo-2,3-dihydro-1,2,4-triazin-4(5H)-yl)-benzenesulfonamide]	8.8	68.4	19.4	28	100	100	100	100	31.6	25.7	38.9	10.8	25	20	25	30	21.7	34.3	29.1	20.7	insecticidal activity against aphides compared with pymetrozine [3]: equivalent to the insecticidal activity of pymetrozine; mortality at 5 mg/kg [3]: 45%; mortality at 1 mg/kg [4, 7]: 30%; mortality at 2 mg/kg [4, 7]: 100%; mortality at 5 mg/kg [4, 7]: 100%; insecticidal activity against mosquito larvae ([4]; in vivo): relatively high insecticidal activity
CC1=NNC(=O)N(NS(=O)(=O)c2c(C)cc(C)cc2C)C1 [Ia-13, 2,4,6-trimethyl-N-(6-methyl-3-oxo-2,3-dihydro-1,2,4-triazin-4(5H)-yl)-benzenesulfonamide]	0	24.6	9	12	100	100	100	100	21	10.8	22.2	16.2	65	45	28.1	30	4.3	25	11.6	13.8	mortality at 2.5 mg/kg [3]: 10%; mortality at 5 mg/kg [3]: 60%; mortality at 2 mg/kg [4, 7]: 20%; mortality at 5 mg/kg [4, 7]: 100%
